Measured values as given in US6914064B2, “1,4-Disubstituted piperazine derivatives useful as uro-selective α1-adrenoceptor blockers” (Ranbaxy Laboratories Limited, priority 2000, dated 2005).
Where a name gives a salt, the structure may show the parent alone.

Assays:
[1] = biological target: T1, α1B adrenoceptor (Rattus norvegicus, UniProt P15823); experiment: Receptor binding assay, displacement of [3H]prazosin, rat liver membranes; settings: [3H]prazosin displacement, rat liver membranes; read-out: α1B (Rat liver) Ki
T1 construct: from tissue; host or cells: rat liver membranes
T1 sequence (P15823 1-515): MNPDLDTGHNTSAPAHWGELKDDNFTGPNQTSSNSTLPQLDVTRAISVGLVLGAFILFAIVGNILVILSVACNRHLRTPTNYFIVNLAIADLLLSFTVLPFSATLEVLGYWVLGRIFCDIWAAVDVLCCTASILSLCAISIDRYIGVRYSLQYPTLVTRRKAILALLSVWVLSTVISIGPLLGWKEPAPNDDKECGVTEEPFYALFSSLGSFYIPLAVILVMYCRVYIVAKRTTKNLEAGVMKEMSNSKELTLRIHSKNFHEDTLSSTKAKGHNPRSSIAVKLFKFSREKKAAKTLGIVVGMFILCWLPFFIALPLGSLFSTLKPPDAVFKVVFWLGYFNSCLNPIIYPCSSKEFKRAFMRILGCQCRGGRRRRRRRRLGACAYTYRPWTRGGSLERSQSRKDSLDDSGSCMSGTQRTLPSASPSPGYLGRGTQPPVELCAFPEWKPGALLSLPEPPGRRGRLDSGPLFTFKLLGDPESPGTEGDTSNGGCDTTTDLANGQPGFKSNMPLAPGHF
Experimental: Receptor binding assays were performed using native α-adrenoceptors. The affinity of different compounds for α1A and α1B adrenoceptor subtypes was evaluated by studying their ability to displace specific [^3H]prazosin binding from the membranes of rat submaxillary and liver respectively (Michel et al, Br J Pharmacol, 98, 883-889 (1989)). The binding assays were performed according to U'Prichard et al. (Eur J Pharmacol, 50:87-89 (1978)) with minor modifications.
(§1) Submaxillary glands were isolated immediately after sacrifice. The liver was perfused with buffer (Tris HCl 50 mM, NaCl 100 mM, 10 mM EDTA pH 7.4). The tissues were homogenised in 10 volumes of buffer (Tris HCl 50 mM, NaCl 100 mM, EDTA 10 mM, pH 7.4). The homogenate was filtered through two layers of wet gauze and filtrate was centrifuged at 500 g for 10 min. The supernatant was subsequently centrifuged at 40,000 g for 45 min. The pellet thus obtained was resuspended in the same volume of assay buffer (Tris HCl 50 mM, EDTA 5 mM, pH 7.4) and were stored at −70° C. until the time of assay.
(§2) The membrane homogenates (150-250 μg protein) were incubated in 250 μl of assay buffer (Tris HCl 50 mM, EDTA 5 mM, pH 7.4) at 24-25° C. for 1 h. Non-specific binding was determined in the presence of 300 nM prazosin. The incubation was terminated by vacuum filtration over GF/B fibre filters. The filters were then washed with ice cold 50 mM Tris HCl buffer (pH 7.4). The filtermats were dried and bound radioactivity retained on filters was counted.The IC50 & Kd were estimated by using the non-linear curve fitting program using G Pad Prism software. The value of inhibition constant Ki was calculated from competitive binding studies by using Cheng & Prusoff equation (Cheng & Prusoff, Biochem Pharmacol, 1973,22: 3099-3108), Ki=IC50/(1+L/Kd) where L is the concentration of [^3H]prazosin used in the particular experiment (Table I).

[2] = biological target: T2, α1A adrenoceptor (Rattus norvegicus, UniProt P43140); experiment: Receptor binding assay, displacement of [3H]prazosin, rat submaxillary membranes; settings: for Ki: [3H]prazosin displacement, rat submaxillary membranes, read-out: α1A (Rat submaxillary) Ki; for Selectivity α1B/α1A: ratio of Ki α1B (rat liver) / α1A (rat submaxillary)
T2 construct: from tissue; host or cells: rat submaxillary gland membranes
T2 sequence (P43140 1-466): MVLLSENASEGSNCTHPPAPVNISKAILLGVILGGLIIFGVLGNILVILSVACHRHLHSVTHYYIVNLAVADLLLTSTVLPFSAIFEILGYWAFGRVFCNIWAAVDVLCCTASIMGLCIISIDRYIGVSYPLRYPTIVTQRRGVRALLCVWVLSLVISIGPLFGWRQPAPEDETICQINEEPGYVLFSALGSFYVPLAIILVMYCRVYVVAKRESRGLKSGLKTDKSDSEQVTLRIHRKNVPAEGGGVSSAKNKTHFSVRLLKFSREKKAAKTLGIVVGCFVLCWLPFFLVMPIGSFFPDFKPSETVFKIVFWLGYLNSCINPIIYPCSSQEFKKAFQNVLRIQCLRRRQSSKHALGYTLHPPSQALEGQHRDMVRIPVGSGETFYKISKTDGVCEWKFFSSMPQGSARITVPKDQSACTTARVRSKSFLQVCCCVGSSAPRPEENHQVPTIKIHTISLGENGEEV
Experimental: Receptor binding assays were performed using native α-adrenoceptors.
as §1
as §2, with “software.” for “software. The value of inhibition constant Ki was calculated from competitive binding studies by using Cheng & Prusoff equation (Cheng & Prusoff, Biochem Pharmacol, 1973,22: 3099-3108), Ki=IC50/(1+L/Kd) where L is the concentration of [^3H]prazosin used in the particular experiment (Table I).”

COc1ccccc1N1CCN(CC(C)CN2C(=O)C3CC=CCC3C2=O)CC1.Cl (stereo not drawn) [Compound 30, 2-[3-{4-(2-Methoxyphenyl)piperazin-1-yl}-2-methylpropyl]-3a,4,7,7a-tetrahydro-1H-isoindole-1,3(2H)-dione hydrochloride]
Ki [1]: 611 nM | melting point: 184 to 185 °C | Ki [2]: 48 nM | Selectivity α1B/α1A [2]: 13

COc1ccc(OC)c(N2CCN(CCCN3C(=O)C4CC=CCC4C3=O)CC2)c1.Cl (stereo not drawn) [Compound 26, 2-[3-{4-(2,5-Dimethoxyphenyl)piperazin-1-yl}propyl]-3a,4,7,7a-tetrahydro-1H-isoindole-1,3(2H)-dione hydrochloride]
Ki [1]: > 500 nM | melting point: 193 to 195 °C | Ki [2]: 38 nM | Selectivity α1B/α1A [2]: 13

COc1cccc(O)c1N1CCN(CCCN2C(=O)C3CC=CCC3C2=O)CC1.Cl (stereo not drawn) [Compound 28, 2-[3-{4-(2-Methoxy-6-hydroxyphenyl)piperazin-1-yl}propyl]-3a,4,7,7a-tetrahydro-1H-isoindole-1,3(2H)-dione hydrochloride]
Ki [1]: > 500 nM | melting point: 267 to 268 °C | Ki [2]: > 500 nM | Selectivity α1B/α1A [2]: 1

Cc1ccc(N2CCN(CCCN3C(=O)C4CC=CCC4C3=O)CC2)cc1C.Cl (stereo not drawn) [Compound 07, 2-[3-{4-(3,4-Dimethylphenyl)piperazin-1-yl}propyl]-3a,4,7,7a-tetrahydro-1H-isoindole-1,3(2H)-dione hydrochloride]
Ki [1]: > 500 nM | melting point: 194 to 196 °C | Ki [2]: 183 nM | Selectivity α1B/α1A [2]: 2.7

Cl.O=C1C2CC=CCC2C(=O)N1CCCN1CCN(c2ccc([N+](=O)[O-])cc2)CC1 (stereo not drawn) [Compound 16, 2-[3-{4-(4-Nitrophenyl)piperazin-1-yl}propyl]-3a,4,7,7a-tetrahydro-1H-isoindole-1,3(2H)-dione hydrochloride]
Ki [1]: > 500 nM | melting point: 259.5 to 261 °C | Ki [2]: > 500 nM | Selectivity α1B/α1A [2]: 1

O=C1[C@H]2CC=CC[C@H]2C(=O)N1CCCN1CCN(C(c2ccc(F)cc2)c2ccc(F)cc2)CC1 (as salt: hydrochloride) [Compound 19, 2-[3-{4-(Bis-4-fluorophenyl)methylpiperazin-1-yl}propyl]-3a,4,7,7a-tetrahydro-1H-isoindole-1,3(2H)-dione hydrochloride]
melting point: 235 to 236 °C

Cl.O=C1C2CC=CCC2C(=O)N1CCCN1CCN(c2cccc(Cl)c2)CC1 (stereo not drawn) [Compound 02, 2-[3-{4-(3-Chlorophenyl)piperazin-1-yl}propyl]-3a,4,7,7a-tetrahydro-1H-isoindole-1,3(2H)-dione hydrochloride]
Ki [1]: 398 nM | melting point: 221 to 223 °C | Ki [2]: 83 nM | Selectivity α1B/α1A [2]: 4.8

COc1ccc(N2CCN(CCCN3C(=O)C4CC=CCC4C3=O)CC2)c(OC)c1.Cl (stereo not drawn) [Compound 21, 2-[3-{4-(2,4-Dimethoxyphenyl)piperazin-1-yl}propyl]-3a,4,7,7a-tetrahydro-1H-isoindole-1,3(2H)-dione hydrochloride]
Ki [1]: > 500 nM | melting point: 226 to 227 °C | Ki [2]: > 500 nM | Selectivity α1B/α1A [2]: 1

Cl.O=C1C2CC=CCC2C(=O)N1CCCN1CCN(c2ccccc2F)CC1 (stereo not drawn) [Compound 06, 2-[3-{4-(2-Fluorophenyl)piperazin-1-yl}propyl]-3a,4,7,7a-tetrahydro-1H-isoindole-1,3(2H)-dione hydrochloride]
Ki [1]: 469 nM | melting point: 203 to 204 °C | Ki [2]: 36 nM | Selectivity α1B/α1A [2]: 13

Cl.O=C1C2CC=CCC2C(=O)N1CCCN1CCN(CC=Cc2ccccc2)CC1 (stereo not drawn) [Compound 15, 2-[3-{4-(Cinnamyl)piperazin-1-yl}propyl]-3a,4,7,7a-tetrahydro-1H-isoindole-1,3(2H)-dione hydrochloride]
Ki [1]: > 500 nM | melting point: 263 to 265 °C | Ki [2]: > 500 nM | Selectivity α1B/α1A [2]: 1

CC(C)(C)c1ccc(N2CCN(CCCN3C(=O)C4CC=CCC4C3=O)CC2)cc1.Cl (stereo not drawn) [Compound 27, 2-[3-{4-(4-tert-Butylphenyl)piperazin-1-yl}propyl]-3a,4,7,7a-tetrahydro-1H-isoindole-1,3(2H)-dione hydrochloride]
Ki [1]: > 500 nM | melting point: 264 to 265 °C | Ki [2]: > 500 nM | Selectivity α1B/α1A [2]: 1

COc1cc(F)ccc1N1CCN(CCCN2C(=O)C3CC=CCC3C2=O)CC1.Cl (stereo not drawn) [Compound 18, 2-[3-{4-(4-Fluoro-2-methoxyphenyl)piperazin-1-yl}propyl]-3a,4,7,7a-tetrahydro-1H-isoindole-1,3(2H)-dione hydrochloride]
Ki [1]: 271 nM | melting point: 232 to 233 °C | Ki [2]: 10 nM | Selectivity α1B/α1A [2]: 27

Cl.O=C1C2CC=CCC2C(=O)N1CCCN1CCN(c2ccc(F)cc2F)CC1 (stereo not drawn) [Compound 10, 2-[3-{4-(2,4-Difluorophenyl)piperazin-1-yl}propyl]-3a,4,7,7a-tetrahydro-1H-isoindole-1,3(2H)-dione hydrochloride]
Ki [1]: 165 nM | melting point: 218.2 to 219 °C | Ki [2]: 62 nM | Selectivity α1B/α1A [2]: 2.7

Cc1ccccc1N1CCN(CCCN2C(=O)[C@H]3CC=CC[C@H]3C2=O)CC1 [Compound 03, 2-[3-{4-(2-Methylphenyl)piperazin-1-yl}propyl]-3a,4,7,7a-tetrahydro-1H-isoindole-1,3(2H)-dione hydrochlolide]
Ki [1]: 168 nM | Ki [2]: 32.5 nM | Selectivity α1B/α1A [2]: 5

Cl.O=C1C2CC=CCC2C(=O)N1CCCN1CCN(c2ccc(Cl)cc2Cl)CC1 (stereo not drawn) [Compound 20, 2-[3-{4-(2,4-Dichlorophenyl)piperazin-1-yl}propyl]-3a,4,7,7a-tetrahydro-1H-isoindole-1,3(2H)-dione hydrochloride]
Ki [1]: > 500 nM | melting point: 210 to 211 °C | Ki [2]: 46.8 nM | Selectivity α1B/α1A [2]: 11

Cc1ccccc1N1CCN(CCCN2C(=O)[C@H]3CC=CC[C@H]3C2=O)CC1 (as salt: hydrochloride) [Compound 03, 2-[3-{4-(2-Methylphenyl)piperazin-1-yl}propyl]-3a,4,7,7a-tetrahydro-1H-isoindole-1,3(2H)-dione hydrochlolide]
melting point: 186 to 187 °C

O=C1[C@H]2CC=CC[C@H]2C(=O)N1CCCN1CCN(C(c2ccc(F)cc2)c2ccc(F)cc2)CC1 [Compound 19, 2-[3-{4-(Bis-4-fluorophenyl)methylpiperazin-1-yl}propyl]-3a,4,7,7a-tetrahydro-1H-isoindole-1,3(2H)-dione hydrochloride]
Ki [1]: 81 nM | Ki [2]: 5.26 nM | Selectivity α1B/α1A [2]: 15
